Data reported in patent publication US4045298A, “Antibiotic XK-62-2 and process for production thereof” (priority 1972, dated 1977).
Values after ≈ are worked out from the molar mass of the structure shown.

How the values were obtained:
Proteus mirabilis 1287 = test: In vivo activity against pathogenic bacterial infections in mice
Source text: (§1) The in vivo activity of XK-62-2 against pathogenic bacterial infections in mice is further tested using various Gram-positive and Gram-negative bacteria. The mice are infected with an inoculum of the bacteria by intraperitonial injection and then treated with the test antibiotic by subcutaneous injection.

[1] = test system: Streptococcus pyogenes S23; test: as above
Source text: as §1

[2] = test system: Escherichia coli GN 2411-5; test: as above
Source text: as §1

[3] = test system: Diplococcus pneumoniae III; test: as above
Source text: as §1

[4] = test system: Klebsiella pneumoniae No. 8045; test: as above
Source text: as §1

[5] = test system: Staphylococcus aureus Smith; test: as above
Source text: as §1

[6] = test system: Pseudomonas aeruginosa BMH No. 1; test: In vivo protection of mice against bacterial infection; settings: subcutaneous, inoculum 3.8×10^8 cells/mouse intraperitoneal
Experimental: In addition, the in vivo activity of XK-62-2 against pathogenic bacterial infections in mice is tested. The mice are infected with an inoculum of 3.8× 10^8 cells/mouse of Pseudomonas aeruginosa BMH No. 1 or 6.6× 10^7 cells/mouse of Pseudomonas aeruginosa KY 8510 by intraperitoneal injection. They are then treated with various doses of the test antibiotic by subcutaneous injection. The effect of XK-62-2 on the protection of the bacterial infections is shown in the following Table 8 wherein ten mice are used in each test.

[7] = test system: Shigella sonnei ATCC 9290; test: Antibacterial spectra by agar dilution method; type: cell-based; settings: ATCC9290, Table 5, read-out: Minimum inhibitory concentration
Source text: (§2) Antibacterial spectra of XK-62-2 by agar

[8] = test system: Bacillus cereus ATCC 9634; test: Antibacterial spectra by agar dilution method; type: cell-based; settings: ATCC9634, Table 5, read-out: Minimum inhibitory concentration
Source text: as §2

[9] = test system: Bacillus cereus var. myccides ATCC 9463; test: Antibacterial spectra by agar dilution method; type: cell-based; settings: ATCC9463, Table 5, read-out: Minimum inhibitory concentration
Source text: as §2

[10] = test system: Staphylococcus aureus KY 8956; test: Antibacterial spectra by agar dilution method; type: cell-based; settings: KY8956, resistant to streptomycin, paromomycin, tetracycline, erythromycin and oleandomycin, read-out: Minimum inhibitory concentration
Source text: as §2

[11] = test system: Staphylococcus aureus KY 8957; test: Antibacterial spectra by agar dilution method; type: cell-based; settings: KY8957, resistant to chloramphenicol, streptomycin, kanendomycin, tetracycline and paromomycin, read-out: Minimum inhibitory concentration
Source text: as §2

[12] = test system: Staphylococcus aureus KY 8942; test: Antibacterial spectra by agar dilution method; type: cell-based; settings: KY8942, resistant to kanamycin, paromomycin and streptomycin, read-out: Minimum inhibitory concentration
Source text: as §2

[13] = test system: Staphylococcus aureus KY 8953; test: Antibacterial spectra by agar dilution method; type: cell-based; settings: KY8953, resistant to streptomycin, kanamycin, paromomycin, tetracycline, neomycin, kanendomycin and erythromycin, read-out: Minimum inhibitory concentration
Source text: as §2

Escherichia coli KY 8302 = test: Antibacterial spectra by agar dilution method; type: cell-based; settings: KY8302, resistant to chloramphenicol, streptomycin, kanamycin, paromomycin, tetracycline and spectinomycin, read-out: Minimum inhibitory concentration
Source text: as §2

[14] = test system: Pseudomonas aeruginosa BMH No. 1; test: Antibacterial spectra by agar dilution method; type: cell-based; settings: BMHNO.1, Table 5, read-out: Minimum inhibitory concentration
Source text: as §2

[15] = test system: Staphylococcus aureus ATCC 6538P; test: Antibacterial spectra by agar dilution method; type: cell-based; settings: ATCC6538P, Table 5, read-out: Minimum inhibitory concentration
Source text: as §2

[16] = test system: Salmonella typhosa ATCC 9992; test: Antibacterial spectra by agar dilution method; type: cell-based; settings: Salmonella enterica, read-out: Minimum inhibitory concentration
Source text: as §2

Escherichia coli KY 8315 = test: Antibacterial spectra by agar dilution method; type: cell-based; settings: KY8315, resistant to streptomycin, kanamycin, paromomycin and neomycin, read-out: Minimum inhibitory concentration
Source text: as §2

[17] = test system: Bacillus subtilis No. 10707; test: Antibacterial spectra by agar dilution method; type: cell-based; settings: Table 5, read-out: Minimum inhibitory concentration
Source text: as §2

Escherichia coli KY 8310 = test: Antibacterial spectra by agar dilution method; type: cell-based; settings: KY8310, resistant to chloramphenicol, streptomycin, kanamycin, gentamicin, kanendomycin, paromomycin, tetracycline and spectinomycin, read-out: Minimum inhibitory concentration
Source text: as §2

[18] = test system: Klebsiella pneumoniae ATCC 10031; test: Antibacterial spectra by agar dilution method; type: cell-based; settings: ATCC10031, Table 5, read-out: Minimum inhibitory concentration
Source text: as §2

Escherichia coli ATCC 26 = test: Antibacterial spectra by agar dilution method; type: cell-based; settings: ATCC26, Table 5, read-out: Minimum inhibitory concentration
Source text: as §2

[19] = test system: Gram-positive and Gram-negative bacteria; test: Antibacterial activity against Gram-positive and Gram-negative bacteria (summary); type: cell-based

Which ED50 (Proteus mirabilis 1287; Proteus mirabilis, 1287, sc, subcutaneous, challenge inoculum 1.8×10^8 cells/mouse, read-out: Median effective dose [ED50]) does the source give for `CNC[C@@H]1CC[C@@H](N)[C@@H](O[C@H]2[C@H](O)[C@@H](O[C@H]3OC[C@](C)(O)[C@H](NC)[C@H]3O)[C@H](N)C[C@@H]2N)O1` [XK-62-2] here?
The ED50 was 10.4 ± 4.4 mg/kg.

And the “Ratio XK-62-2/gentamicin complex” value (Proteus mirabilis 1287; ratio of ED50)?
Its value is 0.97.

What about the ED50 ([1]; Streptococcus pyogenes, S23, sc, subcutaneous, challenge inoculum 2.7×10^7 cells/mouse, read-out: Median effective dose [ED50]) of the same compound?
The ED50 was 17.7 ± 4.8 mg/kg.

What about the “Ratio XK-62-2/gentamicin complex” value ([1]; ratio of ED50) of the same compound?
The value was 1.50.

What about the ED50 ([2]; Escherichia coli, GN2411, sc, subcutaneous, challenge inoculum 3.6×10^6 cells/mouse, read-out: Median effective dose [ED50]) of the same compound?
The ED50 was 10.8 ± 4.1 mg/kg.

And the “Ratio XK-62-2/gentamicin complex” value ([2]; ratio of ED50)?
Its value is 1.01.

And the ED50 ([3]; Streptococcus pneumoniae, sc, subcutaneous, challenge inoculum 4.4×10^3 cells/mouse, read-out: Median effective dose [ED50])?
Its ED50 is 6.6 ± 1.9 mg/kg.

And the “Ratio XK-62-2/gentamicin complex” value ([3]; ratio of ED50)?
The value was 0.86.

What about the ED50 ([4]; Klebsiella pneumoniae, NO.8045, sc, subcutaneous, challenge inoculum 1.4×10^8 cells/mouse, read-out: Median effective dose [ED50]) of the same compound?
Its ED50 is 5.7 ± 1.4 mg/kg.

And the “Ratio XK-62-2/gentamicin complex” value ([4]; ratio of ED50)?
The value was 0.74.

And the ED50 ([5]; Staphylococcus aureus, sc, subcutaneous, challenge inoculum 1.8×10^8 cells/mouse, read-out: Median effective dose [ED50])?
Its ED50 is 0.28 ± 0.04 mg/kg.

What about the “Ratio XK-62-2/gentamicin complex” value ([5]; ratio of ED50) of the same compound?
Its value is 1.33.

And the Survival of mice ([6]; 0.125 mg/mouse)?
The Survival of mice was 0%.

And the Survival of mice ([6]; 0.25 mg/mouse)?
Its Survival of mice is 10%.

What about the Survival of mice ([6]; 0.5 mg/mouse) of the same compound?
Its Survival of mice is 50%.

And the Survival of mice ([6]; 1 mg/mouse)?
The Survival of mice was 90%.

And the Survival of mice ([6]; 2 mg/mouse)?
The Survival of mice was 100%.

And the MIC [7]?
Its MIC is 0.07 µg/mL (≈ 0.151 µM).

And the MIC [8]?
The MIC was 0.016 µg/mL (≈ 0.0345 µM).

And the MIC [9]?
Its MIC is 0.0082 µg/mL (≈ 0.0177 µM).

What about the MIC [10] of the same compound?
The MIC was under 0.001 µg/mL.

And the MIC [11]?
Its MIC is 0.0021 µg/mL (≈ 0.00453 µM).

What about the MIC [12] of the same compound?
The MIC was 0.065 µg/mL (≈ 0.14 µM).

And the MIC [13]?
The MIC was 0.0041 µg/mL (≈ 0.00884 µM).

And the MIC (Escherichia coli KY 8302)?
Its MIC is 0.033 µg/mL (≈ 0.0712 µM).

And the MIC [14]?
Its MIC is 0.53 µg/mL (≈ 1.14 µM).

And the MIC [15]?
The MIC was under 0.0041 µg/mL.

And the MIC [16]?
The MIC was 0.018 µg/mL (≈ 0.0388 µM).

And the MIC (Escherichia coli KY 8315)?
Its MIC is 0.016 µg/mL (≈ 0.0345 µM).

What about the MIC [17] of the same compound?
Its MIC is under 0.004 µg/mL.

And the MIC (Escherichia coli KY 8310)?
The MIC was 1.05 µg/mL (≈ 2.27 µM).

And the MIC [18]?
The MIC was 0.0082 µg/mL (≈ 0.0177 µM).

And the MIC (Escherichia coli ATCC 26)?
The MIC was 0.0082 µg/mL (≈ 0.0177 µM).

What about the Antibacterial activity ([19]; both in vitro and in vivo, broad range of Gram-positive and Gram-negative bacteria) of the same compound?
Its Antibacterial activity is “very strong antibacterial activity”.

And the “In vitro activity relative to gentamicin” value ([19]; in vitro, vs gentamicin)?
The value was “comparable”.

And the “In vitro activity relative to streptomycin and kanamycin” value ([19]; in vitro, vs streptomycin and kanamycin)?
Its value is “far superior”.
